Here are results for 28 compounds from patent publication US20240101570A1 (AMGEN INC., priority 2020, published 2024).

One assay concerns HCT116 WT cells. The experiment in a line: HCT116 WT cell proliferation / viability (CellTiter-Glo, 6 days). Type of assay: cell-based. The conditions noted are these: Homo sapiens, HCT-116, 144 h, HCT116 WT cells, 6 days, CellTiter-Glo; read-out: HCT-116 WT IC50. Put shortly:
(§1)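 Viability read by CellTiter-Glo after 6-day compound exposure of MTAP-null and wild-type HCT116 cells grown in RPMI 1640 with 10% FBS. Dosing used 1:3 steps from 1 or 10 μM (8-9 points) or 1:2 steps from 10 or 50 μM (22 points); IC50 taken where fitted curve crosses 50% of control.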
On the technique in general: ATP-based viability assays read luminescence as a measure of living cells.

A further assay deals with HCT116 MTAP null cells. Kind of assay: HCT116 MTAP null cell proliferation / viability (CellTiter-Glo, 6 days). Type of assay: cell-based. The conditions noted are these: HCT116-MTAP null, 144 h, HCT116 MTAP null cells, 6 days, CellTiter-Glo; read-out: HCT-116 MTAP null IC50. The essentials:
as §1

One may read the IC50 as the concentration that gives 50% inhibition.

For the compound `CN(Cc1ccc(C(F)(F)F)nn1)C(=O)c1cc2c3c(c(N)nc2cc1Cl)COC3` [Example 389, 4-amino-7-chloro-N-methyl-N-((6-(trifluoromethyl)-3-pyridazinyl)methyl)-1,3-dihydrofuro[3,4-c]quinoline-8-carboxamide], the IC50 was found to be 3390 nM in the assay with HCT116 WT cells and 50 nM with HCT116 MTAP null cells.

As to `CC(C)N(Cc1ccc(C#N)cn1)C(=O)c1cc2c3c(c(N)nc2cn1)COC3` [Example 346, 4-amino-N-((5-cyano-2-pyridinyl)methyl)-N-(2-propanyl)-1,3-dihydrofuro[3,4-c][1,7]naphthyridine-8-carboxamide], the IC50 stood at 19400 nM in the assay with HCT116 WT cells and 1090 nM in the assay with HCT116 MTAP null cells.

As to `CC(C)CN(Cc1ccc(C(F)(F)F)cn1)C(=O)c1cnc2nc(N)c3c(c2c1)CCC3` [Example 607, 6-amino-N-isobutyl-N-((5-(trifluoromethyl)pyridin-2-yl)methyl)-8,9-dihydro-7H-cyclopenta[c][1,8]naphthyridine-2-carboxamide], the figures for the IC50 in the assay with HCT116 WT cells and in the assay with HCT116 MTAP null cells were 1370 nM and 154 nM, respectively.

Regarding `CCN(C(=O)c1ccc2nc(N)c3c(c2c1)COC3)[C@@H](C)c1ccc(C#N)cc1` (single isomer, unassigned) [Example 836], the IC50 in the assay with HCT116 WT cells was 38700 nM; with HCT116 MTAP null cells, 3640 nM.

In the case of `CCN(Cc1ccc(OC(F)F)nn1)C(=O)c1ccc2nc(N)c3c(c2c1)COC3` [Example 723, 4-amino-N-((6-(difluoromethoxy)-3-pyridazinyl)methyl)-N-ethyl-1,3-dihydrofuro[3,4-c]quinoline-8-carboxamide], the figures for the IC50 in the assay on HCT116 WT cells and with HCT116 MTAP null cells were 6020 nM and 157 nM, respectively.

Take `Cc1cc2nc(N)c3cnn(C)c3c2cc1C(=O)N(C)[C@H](C)c1ccc(F)cn1` (single isomer, unassigned) [Example 592]: the values for the IC50 with HCT116 WT cells and in the assay on HCT116 MTAP null cells were 2410 nM and 25 nM, respectively.

For the compound `CCN(C(=O)c1ccc2nc(N)c3c(c2c1)COC3)C(C)(C)c1ccc(C(F)(F)F)cc1` [Example 759, 4-amino-N-ethyl-N-(2-(4-(trifluoromethyl)phenyl)-2-propanyl)-1,3-dihydrofuro[3,4-c]quinoline-8-carboxamide], the IC50 in the assay on HCT116 WT cells amounted to 11800 nM; in the assay on HCT116 MTAP null cells, 6730 nM.

Regarding `CC(C)N(Cc1ccc(C#N)cn1)C(=O)c1ccc2nc(N)c3c(c2c1)COC3` [Example 301, 4-amino-N-((5-cyano-2-pyridinyl)methyl)-N-(2-propanyl)-1,3-dihydrofuro[3,4-c]quinoline-8-carboxamide], the figures for the concentration for half-maximal inhibition (IC50) with HCT116 WT cells and in the assay with HCT116 MTAP null cells were 11000 nM and 259 nM, respectively.

For the compound `CC(C)N(Cc1ccc(Cl)cn1)C(=O)c1cc2c3c(c(N)nc2cn1)COC3` [Example 718, 4-amino-N-((5-chloro-2-pyridinyl)methyl)-N-(2-propanyl)-1,3-dihydrofuro[3,4-c][1,7]naphthyridine-8-carboxamide], the IC50 in the assay on HCT116 WT cells was 16400 nM; in the assay on HCT116 MTAP null cells, 281 nM.

With `CCN(C(=O)c1cnc2nc(N)c3c(c2c1)COC3)C(C)c1ccc(C(F)(F)F)cn1` (racemic) [Example 705, 4-amino-N-ethyl-N-((1R)-1-(5-(trifluoromethyl)-2-pyridinyl)ethyl)-1,3-dihydrofuro[3,4-c][1,8]naphthyridine-8-carboxamide and 4-amino-N-ethyl-N-((1S)-1-(5-(trifluoromethyl)-2-pyridinyl)ethyl)-1,3-dihydrofuro[3,4-c][1,8]naphthyridine-8-carboxamide], the IC50 in the assay with HCT116 WT cells came out at 28500 nM; in the assay on HCT116 MTAP null cells it was 637 nM.

In the case of `C[C@H](c1ccc(F)cn1)N(C)C(=O)c1ccc2nc(N)c3cnn(C)c3c2c1` (single isomer, unassigned) [Example 604], the IC50 with HCT116 WT cells was 24600 nM; with HCT116 MTAP null cells, 238 nM.

On to `C[C@H](c1ncccn1)N(Cc1ccc(Br)nn1)C(=O)c1cc2c3c(c(N)nc2cn1)COC3` [Example 673, 4-amino-N-((6-bromo-3-pyridazinyl)methyl)-N-((1R)-1-(2-pyrimidinyl)ethyl)-1,3-dihydrofuro[3,4-c][1,7]naphthyridine-8-carboxamide], for which the results for the IC50 with HCT116 WT cells and in the assay on HCT116 MTAP null cells were 3260 nM and 110 nM, respectively.

For the compound `C[C@@H](c1ncccn1)N(Cc1ccc(C(F)(F)F)nn1)C(=O)c1ccc2nc(N)c3c(c2c1)CCC3` (single isomer, unassigned) [Example 648], the IC50 was found to be 2500 nM with HCT116 WT cells and 279 nM with HCT116 MTAP null cells.

As to `CCN(C(=O)c1cc2c3c(c(N)nc2cc1F)[C@@H](C)OC3)[C@H](C)c1ccc(C(F)(F)F)nn1` [Example 784, (3R)-4-amino-N-ethyl-7-fluoro-3-methyl-N-((1R)-1-(6-(trifluoromethyl)-3-pyridazinyl)ethyl)-1,3-dihydrofuro[3,4-c]quinoline-8-carboxamide], the IC50 came to 609 nM with HCT116 WT cells and 22 nM with HCT116 MTAP null cells.

For `CN(Cc1ccc(C(F)(F)F)cc1)C(=O)c1cc2c(cc1F)nc(N)c1cnn(C)c12` [Example 552, 4-amino-7-fluoro-N,1-dimethyl-N-(4-(trifluoromethyl)benzyl)-1H-pyrazolo[4,3-c]quinoline-8-carboxamide], the IC50 amounted to 1880 nM in the assay with HCT116 WT cells and 25 nM in the assay with HCT116 MTAP null cells.

As for `C[C@H]1OCc2c1c(N)nc1cnc(C(=O)N(C)Cc3ccc(C(F)(F)F)nn3)cc21` [Example 317, (3R)-4-amino-N,3-dimethyl-N-((6-(trifluoromethyl)-3-pyridazinyl)methyl)-1,3-dihydrofuro [3,4-c][1,7]naphthyridine-8-carboxamide], the figures for the IC50 with HCT116 WT cells and in the assay with HCT116 MTAP null cells were 49700 nM and 432 nM, respectively.

Turning to `CCOc1ccc(CN(C(=O)c2ccc3nc(N)c4c(c3c2)COC4)[C@H](C)COC)nn1` [Example 373, 4-amino-N-((6-ethoxy-3-pyridazinyl)methyl)-N-((2R)-1-methoxy-2-propanyl)-1,3-dihydrofuro[3,4-c]quinoline-8-carboxamide], the IC50 in the assay with HCT116 WT cells was 2980 nM; in the assay with HCT116 MTAP null cells, 22 nM.

For `C[C@H](c1ccc(C(F)(F)F)nn1)N(C)C(=O)c1cc2c(cc1F)nc(N)c1c2cnn1C` [Example 779, 4-amino-7-fluoro-N,3-dimethyl-N-((1R)-1-(6-(trifluoromethyl)-3-pyridazinyl)ethyl)-3H-pyrazolo[3,4-c]quinoline-8-carboxamide], the IC50 in the assay on HCT116 WT cells is 28900 nM; with HCT116 MTAP null cells, 364 nM.

With `C[C@H](c1ncccn1)N(Cc1ccc(C(F)(F)F)cn1)C(=O)c1ccc2nc(N)c3c(c2c1)CCCC3` [Example 654, 6-amino-N-((1R)-1-(2-pyrimidinyl)ethyl)-N-((5-(trifluoromethyl)-2-pyridinyl)methyl)-7,8,9,10-tetrahydro-2-phenanthridinecarboxamide], the IC50 is 171 nM in the assay on HCT116 WT cells and 9 nM in the assay on HCT116 MTAP null cells.

`C[C@H](c1ncccn1)N(Cc1ccc(Cl)nn1)C(=O)c1ccc2nc(N)c3c(c2c1)COC3` [Example 676, 4-amino-N-((6-chloro-3-pyridazinyl)methyl)-N-((1R)-1-(2-pyrimidinyl)ethyl)-1,3-dihydrofuro[3,4-c]quinoline-8-carboxamide]: the IC50 with HCT116 WT cells is 316 nM; in the assay with HCT116 MTAP null cells, 12 nM.

Take `CC(C)N(Cc1ccc(C2CC2)nc1)C(=O)c1cc2c3c(c(N)nc2cc1F)COC3` [Example 363, 4-amino-N-((6-cyclopropyl-3-pyridinyl)methyl)-7-fluoro-N-(2-propanyl)-1,3-dihydrofuro[3,4-c]quinoline-8-carboxamide]: the IC50 was determined as 1180 nM with HCT116 WT cells and 36 nM in the assay with HCT116 MTAP null cells.

Regarding `C[C@H](c1ncccn1)N(Cc1ccc(C#N)cn1)C(=O)c1ccc2nc(N)c3ccccc3c2c1` [Example 630, 6-amino-N-((5-cyano-2-pyridinyl)methyl)-N-((1R)-1-(2-pyrimidinyl)ethyl)-2-phenanthridinecarboxamide], the figures for the IC50 with HCT116 WT cells and with HCT116 MTAP null cells were 408 nM and 19 nM, respectively.

As for `CC1OCc2c1c(N)nc1ccc(C(=O)N(Cc3ccc(C(F)(F)F)cn3)Cc3ncccc3F)cc21` (centres unmarked) [Example 890, 4-amino-N-((3-fluoropyridin-2-yl)methyl)-3-methyl-N-((5-(trifluoromethyl)pyridin-2-yl)methyl)-1,3-dihydrofuro[3,4-c]quinoline-8-carboxamide], the IC50 was 156 nM with HCT116 WT cells and 14 nM in the assay with HCT116 MTAP null cells.

On to `CC(C)N(Cc1ccc(C(F)(F)F)cn1)C(=O)c1cc2c3c(c(N)nc2cn1)CCO3` [Example 534, 4-amino-N-(2-propanyl)-N-((5-(trifluoromethyl)-2-pyridinyl)methyl)-2,3-dihydrofuro[3,2-c][1,7]naphthyridine-8-carboxamide], for which the IC50 stood at 5580 nM with HCT116 WT cells and 581 nM in the assay with HCT116 MTAP null cells.

Take `C[C@H]1OCc2c1c(N)nc1cc(F)c(C(=O)N(C)[C@@H](C)c3ccc(C(F)(F)F)cc3)cc21` (single isomer, unassigned) [Example 859]: the figures for the half-inhibitory concentration (IC50) in the assay on HCT116 WT cells and in the assay with HCT116 MTAP null cells were 17500 nM and 583 nM, respectively.

In the case of `CC(C)N(C(=O)c1cc2c3c(c(N)nc2cc1Cl)COC3)[C@H](C)c1ccc(C(F)(F)F)cn1` (single isomer, unassigned) [Example 845], the values for the IC50 with HCT116 WT cells and in the assay on HCT116 MTAP null cells were 2240 nM and 105 nM, respectively.

In the case of `C[C@@H](NC(=O)c1ccc2nc(N)c3c(c2c1)CO[C@@H]3C)c1ccc(C(F)(F)F)cn1` [Example 768, (3R)-4-amino-3-methyl-N-((1R)-1-(5-(trifluoromethyl)-2-pyridinyl)ethyl)-1,3-dihydrofuro[3,4-c]quinoline-8-carboxamide], the half-inhibitory concentration (IC50) with HCT116 WT cells was above 50000 nM; in the assay with HCT116 MTAP null cells, 4230 nM.

Regarding `C[C@H](c1ncccn1)N(Cc1ccc(OCC(F)(F)F)nn1)C(=O)c1ccc2nc(N)c3c(c2c1)COC3` [Example 453, 4-amino-N-((1R)-1-(2-pyrimidinyl)ethyl)-N-((6-(2,2,2-trifluoroethoxy)-3-pyridazinyl)methyl)-1,3-dihydrofuro[3,4-c]quinoline-8-carboxamide], the results for the IC50 with HCT116 WT cells and in the assay on HCT116 MTAP null cells were 543 nM and 35 nM, respectively.
